Tests used:
[1] = target: T1, human A2A adenosine receptor (hA2A) (Homo sapiens, UniProt P29274); test: Binding affinity for A2A adenosine receptor expressed on HEK 293 cell ([3H]CGS-21680); details: 10 μM (table footnote); read-out: percentage inhibition of specific binding, hA2A
T1 construct: expressed in transfected cells; host or cells: HEK 293 cells

[2] = tested on: TPA-induced inflammation of the mouse ear; test: Anti-inflammatory activity, TPA-treated mouse ear; format: in vivo, ICR mice; details: for anti-inflammatory activity relative to Examples 2 to 4: 0.5% in acetone, on the basis of inhibition percentage; for percentage of inflammation inhibition: topical, mouse ear
Method: The adenosine derivatives of the present invention were examined for anti-inflammatory activity in the following animal test. Seven-week-old male ICR mice were treated with TPA (12-O-tetradecanoylphorbol-13-acetate, 20 μl) in the right ear. […] Hydrocortisone was used at the same concentration as a control.
6 hrs after treatment with TPA, the mice were secondarily treated with the adenosine derivatives of the present invention. 24 hrs after TPA treatment, test animals were euthanized using a cervical dislocation method. Samples were obtained from the right ear using a 6 mm diameter punch. The activity was observed by measuring the ear sample using a microbalance. Percentages of inhibition were calculated using the following Equation 1. The compositions and amounts used in these experiments are summarized in Tables 2 to 5 and the anti-inflammatory activities thereof are shown in FIGS. 2 to 5.

[3] = target: T2, human A1 adenosine receptor (hA1) (Homo sapiens, UniProt P30542); test: Binding affinity for human A1 adenosine receptor expressed in CHO cells ([3H]CCPA); details: 10 μM (table footnote); read-out: percentage inhibition of specific binding, hA1
T2 construct: expressed in transfected cells; host or cells: CHO cells (ATCC No. CCL-61)
T2 sequence (P30542 1-326): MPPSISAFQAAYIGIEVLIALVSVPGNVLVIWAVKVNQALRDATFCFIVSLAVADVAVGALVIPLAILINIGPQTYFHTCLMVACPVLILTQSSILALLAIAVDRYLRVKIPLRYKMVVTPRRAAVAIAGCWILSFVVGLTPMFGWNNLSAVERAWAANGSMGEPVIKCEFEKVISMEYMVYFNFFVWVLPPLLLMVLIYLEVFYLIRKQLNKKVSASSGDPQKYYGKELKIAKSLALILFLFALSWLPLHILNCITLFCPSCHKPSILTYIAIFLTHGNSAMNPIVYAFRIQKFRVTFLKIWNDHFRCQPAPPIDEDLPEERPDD

[4] = target: T3, human A3 adenosine receptor (Homo sapiens, UniProt P0DMS8); test: Antagonism of Cl-IB-MECA and cAMP inhibition in CHO cells expressing human A3 adenosine receptor; format: cell-based; details: CHO cells expressing hA3 AR, various concentrations
T3 construct: expressed in transfected cells; host or cells: CHO cells
T3 sequence (P0DMS8 1-318): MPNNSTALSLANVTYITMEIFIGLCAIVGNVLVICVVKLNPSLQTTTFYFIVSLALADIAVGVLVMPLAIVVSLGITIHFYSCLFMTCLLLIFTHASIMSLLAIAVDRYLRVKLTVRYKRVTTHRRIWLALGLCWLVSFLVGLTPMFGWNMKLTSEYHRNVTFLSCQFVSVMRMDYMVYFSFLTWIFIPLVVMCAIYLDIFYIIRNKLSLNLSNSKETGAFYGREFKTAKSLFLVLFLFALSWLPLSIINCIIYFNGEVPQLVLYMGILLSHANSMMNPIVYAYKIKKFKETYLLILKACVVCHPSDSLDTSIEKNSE

[5] = target: T4, human A2B adenosine receptor (Homo sapiens, UniProt P29275); test: Agonist or antagonist activity on human A2B adenosine receptor; format: biochemical
T4 sequence (P29275 1-332): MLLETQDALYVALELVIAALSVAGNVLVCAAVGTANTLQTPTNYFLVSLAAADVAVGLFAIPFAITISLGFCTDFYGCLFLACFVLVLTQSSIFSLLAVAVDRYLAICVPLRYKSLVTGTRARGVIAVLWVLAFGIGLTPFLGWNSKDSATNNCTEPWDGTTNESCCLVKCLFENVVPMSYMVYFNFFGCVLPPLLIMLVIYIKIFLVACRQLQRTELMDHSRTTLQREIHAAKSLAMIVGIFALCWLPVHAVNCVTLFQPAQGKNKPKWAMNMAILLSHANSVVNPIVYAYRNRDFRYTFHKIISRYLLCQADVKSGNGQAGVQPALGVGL

[6] = target: T5, human A3 adenosine receptor (hA3 AR) (Homo sapiens, UniProt P0DMS8); test: Binding affinity for human A3 adenosine receptor expressed in CHO cells ([125I]AB-MECA); details: for Ki: ± SEM, [125I]AB-MECA, CHO cells
T5 construct: expressed in transfected cells; host or cells: CHO cells (ATCC No. CCL-61)
T5 sequence (P0DMS8 1-318): T3 sequence (P0DMS8 1-318)

[7] = tested on: NASH- or NAFLD-induced mice; test: Efficacy test on NASH or NAFLD and liver fibrosis in NASH- or NAFLD-induced mice; format: in vivo; details: oral once a day, 6 to 10 weeks of age; vs negative control; HE staining
Method: As a comparison group, eight normal mice were given no treatment until 10 weeks of age. As a positive control group, eight NASH- or NAFLD-induced mice were orally administered with 10 mg/kg of telmisartan (i.e., a hypertension medication) once a day for six to 10 weeks of age. As a negative control group, eight NASH- or NAFLD-induced mice were orally administered with only 10 mL/kg of 0.5% methyl cellulose (i.e., a vehicle) once a day for 6 to 10 weeks of age.
Then, for the livers of the experimental animals at 10 weeks of age, the degree of steatosis, inflammation and ballooning were measured using HE staining, and the area of fibrosis was observed and measured using Sirius red staining.

[8] = 0.5% in distilled water:acetone (1:4)

T1 sequence (P29274 whole entry): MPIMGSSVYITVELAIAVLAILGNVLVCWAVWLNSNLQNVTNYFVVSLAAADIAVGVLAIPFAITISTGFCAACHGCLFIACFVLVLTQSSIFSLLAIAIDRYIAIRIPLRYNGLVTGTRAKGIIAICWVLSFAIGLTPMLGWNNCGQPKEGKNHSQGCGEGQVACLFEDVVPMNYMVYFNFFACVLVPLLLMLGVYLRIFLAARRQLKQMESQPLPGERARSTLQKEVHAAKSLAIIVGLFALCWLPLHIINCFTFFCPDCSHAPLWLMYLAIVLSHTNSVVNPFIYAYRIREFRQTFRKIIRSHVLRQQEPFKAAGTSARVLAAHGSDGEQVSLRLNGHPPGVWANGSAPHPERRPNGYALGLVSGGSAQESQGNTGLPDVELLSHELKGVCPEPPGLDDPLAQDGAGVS

| SMILES | melting point | inhibition [1] | inhibition at 10 µM [3] | further results |
| --- | --- | --- | --- | --- |
| O[C@@H]1[C@H](O)CS[C@H]1n1cnc2c(NCc3cccc(F)c3)nc(Cl)nc21 [Example 1, (2R,3R,4S)-2-(2-Chloro-6-(3-fluorobenzylamino)-9H-purin-9-yl)tetrahydrothiophen-3,4-diol] | 183.2 to 183.5 °C | 47.6% | 19.8% | anti-inflammatory activity relative to Examples 2 to 4 [2]: four or more times that of the compounds of Examples 2 to 4 |
| O[C@@H]1[C@H](O)CS[C@H]1n1cnc2c(NCc3cccc(I)c3)nc(Cl)nc21 [Example 4, (2R,3R,4S)-2-(2-Chloro-6-(3-iodobenzylamino)-9H-purin-9-yl)tetrahydrothiophen-3,4-diol] |  |  |  | inhibition of the agonist effect of Cl-IB-MECA [4]: inhibited in a dose-dependent manner; agonist or antagonist on human A2B adenosine receptor [5]: not observed as an agonist or antagonist |
| COc1ccc(Cl)cc1CNc1nc(Cl)nc2c1ncn2[C@@H]1SC[C@@H](O)[C@H]1O [Example 6, (2R,3R,4S)-2-(2-Chloro-6-(5-chloro-2-methoxybenzylamino)-9H-purin-9-yl)tetrahydrothiophen-3,4-diol] | 188.8 to 189.8 °C |  | 23.8% | anti-inflammatory activity relative to Examples 2 to 4 [2]: four or more times that of the compounds of Examples 2 to 4 |
| CNc1nc(Cl)nc2c1ncn2[C@@H]1SC[C@H](O)[C@@H]1O [Example 10, 2-(2-Chloro-6-methylamino-purin-9-yl)(2R,3 S,4R)-tetrahydrothiophen-3,4-diol] |  | 45 ± 1.4% | 55.4 ± 1.8% | Ki [6]: 0.00369 ± 0.00025 µM |
| O[C@@H]1[C@H](O)CS[C@H]1n1cnc2c(NCc3cccc(I)c3)ncnc21 [Example 14, (2R,3R,4S)-2-(6-(3-Iodobenzylamino)-9H-purin-9-yl)tetrahydrothiophen-3,4-diol] | 198.8 to 199.8 °C |  |  |  |
| O[C@@H]1[C@H](O)CO[C@H]1n1cnc2c(NCc3cccc(Br)c3)nc(Cl)nc21 [Example 15, (2R,3R,4R)-2-(6-(3-bromobenzylamino)-2-chloro-9H-purin-9-yl)tetrahydrofuran-3,4-diol] | 181.5 to 181.7 °C | 22.8% | 39.8% | percentage of inflammation inhibition ([2]; 0.5% in DMSO:acetone (1:9)): 59% |
| CCCc1nc2c(C)cc(-c3nc4ccccc4n3C)cc2n1Cc1ccc(-c2ccccc2C(=O)O)cc1 [telmisartan] |  |  |  | steatosis score of the liver [7]: no significant decrease in steatosis was observed |

More lines, main results first:

| melting point | inhibition [1] | inhibition at 10 µM [3] | SMILES | further results |
| --- | --- | --- | --- | --- |
| 184 to 185 °C | 18.4% | 34.2% | O[C@@H]1[C@H](O)CS[C@H]1n1cnc2c(NCc3cccc(Br)c3)nc(Cl)nc21 [Example 3, (2R,3R,4S)-2-(2-Chloro-6-(3-bromobenzylamino)-9H-purin-9-yl)tetrahydrothiophen-3,4-diol] |  |
| 198.7 to 199.7 °C |  |  | O[C@@H]1[C@H](O)CS[C@H]1n1cnc2c(NCc3ccccc3Cl)nc(Cl)nc21 [Example 5, (2R,3R,4S)-2-(2-Chloro-6-(2-chlorobenzylamino)-9H-purin-9-yl)tetrahydrothiophen-3,4-diol] | percentage of inflammation inhibition [2, 8]: 17%; inhibition [3]: 12.8% |
| 188 °C | 17.5% | 9.4% | COc1ccccc1CNc1nc(Cl)nc2c1ncn2[C@@H]1SC[C@@H](O)[C@H]1O [Example 7, (2R,3R,4S)-2-(2-chloro-6-(2-methoxybenzylamino)-9H-purin-9-yl)tetrahydrothiophen-3,4-diol] |  |
| 226.3 °C (dec.) | -8.3% | 22% | O[C@@H]1[C@H](O)CS[C@H]1n1cnc2c(NCc3cccc4ccccc34)nc(Cl)nc21 [Example 8, (2R,3R,4S)-2-(2-Chloro-6-(naphthalen-1-ylmethylamino)-9H-purin-9-yl)tetrahydrothiophen-3,4-diol] | percentage of inflammation inhibition [2, 8]: 53% |
| 254 to 256.9 °C | -0.18% | 13.1% | O=C(O)c1cccc(CNc2nc(Cl)nc3c2ncn3[C@@H]2SC[C@@H](O)[C@H]2O)c1 [Example 9, 3-((2-chloro-9-((2R,3R,4S)-3,4-dihydroxytetrahydrothiophen-2-yl)-9H-purine-6-ylamino)methyl)benzoic acid] | inhibition at 10 µM ([6]; 10 μM (table footnote), read-out: percentage inhibition of specific binding, hA3): 41.5% |
| 183 to 184 °C |  |  | O[C@@H]1[C@H](O)CS[C@H]1n1cnc2c(NCc3cccc(Br)c3)ncnc21 [Example 13, (2R,3R,4S)-2-(6-(3-bromobenzylamino)-9H-purin-9-yl)tetrahydrothiophen-3,4-diol] |  |
| 195.5 to 195.8 °C | 28.6% | 37.7% | OC1CO[C@@H](n2cnc3c(NCc4cccc(I)c4)nc(Cl)nc32)C1O (stereo partly drawn) [Example 16, (2R,3R,4R)-2-(6-(3-iodobenzylamino)-2-chloro-9H-purin-9-yl)tetrahydrofuro-3,4-diol] | Ki [6]: 0.0429 ± 0.0089 µM; percentage of inflammation inhibition ([2]; 0.5% in DMSO:acetone (1:9)): 79% |

— US11266650B2, “Pharmaceutical composition for preventing and treating nonalcoholic steatohepatitis, hepatic fibrosis, and liver cirrhosis, comprising adenosine derivatives” (FUTURE MEDICINE CO., LTD., priority 2016, dated 2022)
